Assay results published in patent US20230085307A1, “PYRIDAZINONE COMPOUND AND HERBICIDE” (NISSAN CHEMICAL CORPORATION, priority 2019, published 2023).

How the values were obtained:
late watergrass = assay: Test Example 2: herbicidal activity, application during weed generation under submerged conditions (Table 17, symbol A); format: in vivo, late watergrass (Echinochloa oryzicola); settings: AAH 285 g/ha; application during weed generation, submerged conditions
Experimental: (§1) [Test Example 2] Herbicidal Activity Test by Application during Weed Generation under Submerged Conditions After alluvial soil was placed into 1/10000 are of Wagner pot, water was poured and mixed to form a submerged condition having a water depth of 4 cm. Seeds of late watergrass, Japanese bulrush, and oval-leafed pondweed were sowed in a mixed manner in the aforementioned pot, and the pot was placed in a greenhouse at 25° C. to 30° C. for growth of the plants. When late watergrass, Japanese bulrush, and oval-leafed pondweed were grown to one leaf stage to two leaf stage, the emulsion agent of the compound of the present invention prepared according to Formulation Example 2 was diluted with water so as to achieve a predetermined herbicide amount, and the diluted emulsion agent was applied to the surface of the water. Three weeks after the herbicide application, the effect of the herbicide on each plant was evaluated according to the criteria of Test Example 1.

Japanese bulrush = assay: Test Example 2: herbicidal activity, application during weed generation under submerged conditions (Table 17, symbol B); format: in vivo, Japanese bulrush (Schoenoplectus juncoides); settings: AAH 285 g/ha; application during weed generation, submerged conditions
Experimental: as §1

oval-leafed pondweed = assay: Test Example 2: herbicidal activity, application during weed generation under submerged conditions (Table 17, symbol C); format: in vivo, oval-leafed pondweed (Monochoria vaginalis); settings: AAH 285 g/ha; application during weed generation, submerged conditions
Experimental: as §1

barnyard grass [1] = assay: Test Example 3: herbicidal effect by foliage application, Wagner pot (Table 18, symbol H); format: in vivo, barnyard grass (Echinochloa crus-galli); settings: amount of applied herbicide 285 g/ha
Method in brief: (§2)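 Plants were sown in alluvial soil held under 0.1–0.5 cm standing water and grown 14 days in a greenhouse at 25–30 °C. An emulsifiable formulation, water-diluted to the set dose, was then sprayed onto the foliage, and effects were scored three weeks later using previously defined criteria.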

Chinese sprangletop = assay: Test Example 3: herbicidal effect by foliage application, Wagner pot (Table 18, symbol D); format: in vivo, chinese sprangletop (Leptochloa chinensis); settings: amount of applied herbicide 285 g/ha
Method in brief: as §2

rice flat sedge = assay: Test Example 3: herbicidal effect by foliage application, Wagner pot (Table 18, symbol E); format: in vivo, rice flat sedge (Cyperus iria); settings: amount of applied herbicide 285 g/ha
Method in brief: as §2

southern crabgrass = assay: Test Example 5: herbicidal effect by foliage application, plastic box (Table 20, symbol F); format: in vivo, southern crabgrass (Digitaria ciliaris); settings: foliage application, 285 g/ha, three weeks after application
Method in brief: (§3)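 Foliar spray test: emulsion formulation diluted in water to a set application rate, sprayed onto 14-day-old plants raised in diluvial soil at 25° C to 30° C under glass. Both herbicidal effect and crop effect rated visually three weeks later.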

green foxtail = assay: Test Example 5: herbicidal effect by foliage application, plastic box (Table 20, symbol G); format: in vivo, green foxtail (Setaria viridis); settings: foliage application, 285 g/ha, three weeks after application
Method in brief: as §3

barnyard grass [2] = assay: Test Example 5: herbicidal effect by foliage application, plastic box (Table 20, symbol H); format: in vivo, barnyard grass (Echinochloa crus-galli); settings: foliage application, 285 g/ha, three weeks after application
Method in brief: as §3

wild oat = assay: Test Example 5: herbicidal effect by foliage application, plastic box (Table 20, symbol I); format: in vivo, wild oat (Avena fatua); settings: foliage application, 285 g/ha, three weeks after application
Method in brief: as §3

blackgrass = assay: Test Example 5: herbicidal effect by foliage application, plastic box (Table 20, symbol J); format: in vivo, blackgrass (Alopecurus myosuroides); settings: foliage application, 285 g/ha, three weeks after application
Method in brief: as §3

Italian ryegrass = assay: Test Example 5: herbicidal effect by foliage application, plastic box (Table 20, symbol K); format: in vivo, Italian ryegrass (Lolium multiflorum); settings: foliage application, 285 g/ha, three weeks after application
Method in brief: as §3

windgrass = assay: Test Example 5: herbicidal effect by foliage application, plastic box (Table 20, symbol L); format: in vivo, windgrass (Apera spica-venti); settings: foliage application, 285 g/ha, three weeks after application
Method in brief: as §3

velvetleaf = assay: Test Example 5: herbicidal effect by foliage application, plastic box (Table 20, symbol M); format: in vivo, velvetleaf (Abutilon theophrasti); settings: foliage application, 285 g/ha, three weeks after application
Method in brief: as §3

redroot pigweed = assay: Test Example 5: herbicidal effect by foliage application, plastic box (Table 20, symbol N); format: in vivo, redroot pigweed (Amaranthus retroflexus); settings: foliage application, 285 g/ha, three weeks after application
Method in brief: as §3

lambsquarters = assay: Test Example 5: herbicidal effect by foliage application, plastic box (Table 20, symbol O); format: in vivo, lambsquarters (Chenopodium album); settings: foliage application, 285 g/ha, three weeks after application
Method in brief: as §3

chickweed = assay: Test Example 5: herbicidal effect by foliage application, plastic box (Table 20, symbol P); format: in vivo, common chickweed (Stellaria media); settings: foliage application, 285 g/ha, three weeks after application
Method in brief: as §3

persian speedwell = assay: Test Example 5: herbicidal effect by foliage application, plastic box (Table 20, symbol R); format: in vivo, Persian speedwell (Veronica persica); settings: foliage application, 285 g/ha, three weeks after application
Method in brief: as §3

CCOC(=O)OC(C)Oc1c(C)nn(C)c(=O)c1-c1c(-c2ccccc2OC)sc2cc(F)ccc12 (stereo not drawn) [3-029]
herbicidal effect rating, A: late watergrass (late watergrass): 0 (Herbicidal rate of 5% or less (almost no effect)) | herbicidal effect rating, B: Japanese bulrush (Japanese bulrush): 3 (Herbicidal rate of 40% or more and less than 70%) | herbicidal effect rating, C: oval-leafed pondweed (oval-leafed pondweed): 1 (Herbicidal rate of 5% or more and less than 20%) | herbicidal effect on H: barnyard grass (barnyard grass [1]): 5 (Herbicidal rate of 90% or more (almost completely withered)) | herbicidal effect on D: Chinese sprangletop (Chinese sprangletop): 3 (Herbicidal rate of 40% or more and less than 70%) | herbicidal effect on E: rice flat sedge (rice flat sedge): 5 (Herbicidal rate of 90% or more (almost completely withered)) | F: southern crabgrass, herbicidal effect grade (southern crabgrass): 3 (Herbicidal rate of 40% or more and less than 70%) | G: green foxtail, herbicidal effect grade (green foxtail): 5 (Herbicidal rate of 90% or more (almost completely withered)) | H: barnyard grass, herbicidal effect grade (barnyard grass [2]): 4 (Herbicidal rate of 70% or more and less than 90%) | I: wild oat, herbicidal effect grade (wild oat): 1 (Herbicidal rate of 5% or more and less than 20%) | J: blackgrass, herbicidal effect grade (blackgrass): 4 (Herbicidal rate of 70% or more and less than 90%) | K: Italian ryegrass, herbicidal effect grade (Italian ryegrass): 3 (Herbicidal rate of 40% or more and less than 70%) | L: windgrass, herbicidal effect grade (windgrass): 4 (Herbicidal rate of 70% or more and less than 90%) | M: velvetleaf, herbicidal effect grade (velvetleaf): 5 (Herbicidal rate of 90% or more (almost completely withered)) | N: redroot pigweed, herbicidal effect grade (redroot pigweed): 5 (Herbicidal rate of 90% or more (almost completely withered)) | O: lambsquarters, herbicidal effect grade (lambsquarters): 3 (Herbicidal rate of 40% or more and less than 70%) | P: chickweed, herbicidal effect grade (chickweed): 4 (Herbicidal rate of 70% or more and less than 90%) | R: persian speedwell, herbicidal effect grade (persian speedwell): 0 (Herbicidal rate of 5% or less (almost no effect))
